# Source: patent US6762160B2, “Composition for removing biofilms comprising a detergent and a salt forming acid” (Universite de Montreal, priority 1998, dated 2004)
# “Also recorded” adds a separate entry of the source.
# Key:
# [1] = system: mature biofilms on lumen of dental unit waterlines tubings; test: Biofilm removal from dental unit waterline tubing pieces, binocular microscope 40x, arbitrary scale; type: cell-based, dental unit waterlines bacteria; settings: for RESULTS AFTER DISINFECTION 18 hours (biofilm scale): selected acid 1% with H2O2 5%, EDTA 1%, SDS 1%, pH 5,0, 18 hours contact, room temperature, no agitation; for acceptably performing acids: decontamination within the specified times: acid 1% in H2O2 5%/EDTA 1%/SDS 1% solution, pH 5.0, 1 hour or 18 hours; as to RESULTS AFTER DISINFECTION 18 hours (biofilm scale): key: −: no biofilm; ++++: + ++ + : no significant removal of film
# Procedure: Two-cm long pieces of dental unit waterlines tubings were used. These tubings were taken from functional dental units installed at the faculty of dentistry of the University of Montreal. […] The pieces were sectioned longitudinally with a sterile scalpel blade to expose the biofilm. Another series of tubings was left untouched. Sections of tubings were placed in sterile 5 ml disposable test tubes containing solutions to be tested.
# After 1 or 18 hours without agitation at room temperature, tubings were rinsed three times with sterile water.
# [2] = system: dental unit waterlines bacteria; test: Antibacterial activity: growth in R2Am medium after disinfection of tubings; settings: for RESULTS AFTER DISINFECTION Growth: selected acid 1% with H2O2 5%, EDTA 1%, SDS 1%, pH 5,0, tubing incubated 7 days in R2Am, 590 nm;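 as to all read-outs here: disinfected tubing pieces kept 7 days at room temperature in R2Am medium, then scored for presence or absence of bacterial growth by absorbance at 590 nm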
# Procedure: To test the antibacterial activity, we used the same setup as above. After the 1 or 18 hour incubation, tubings were rinsed with sterile water. Pieces of tubings were dropped in sterile test tubes containing 4 ml of R2Am medium. Test tubes were capped and incubated for 7 days at room temperature. […] Data were recorded as presence or absence of growth with a spectrophotometer at λ=590 nm.
# Mycobacterium sp. = type: cell-based
Compound,RESULTS AFTER DISINFECTION Growth [2],acceptably performing acids: decontamination within the specified times [1],also measured
"O=P(O)(O)O [Phosphoric Acid (H3PO4), Phosphoric Acid]",−,,RESULTS AFTER DISINFECTION 18 hours (biofilm scale) [1]: −
O=C(O)c1ccccc1C(=O)O [Phthalic Acid],−,sufficient decontamination,
CC(=O)C(=O)O [Pyruvic Acid],−,,RESULTS AFTER DISINFECTION 18 hours (biofilm scale) [1]: −
O=C(O)c1ccccc1O [Salicylic Acid],−,sufficient decontamination,
O=C(O)CCC(=O)O [Succinic Acid],−,sufficient decontamination,
O=C(O)CNC(CO)(CO)CO [Tricine],−,sufficient decontamination,
"OO [hydrogen peroxide, Hydrogen peroxide]",,,"growth after treatment ([2]; hydrogen peroxide 5% in Table 1 solutions): total absence of growth; killing activity of bactericide, even against Mycobacterium sp. (Mycobacterium sp.): broad host killing activity; also recorded: efficient"
Oc1ccccc1 [phenol],,,"bactericide tried in cleaning solution [2]: success; killing activity of bactericide, even against Mycobacterium sp. (Mycobacterium sp.): efficient"
OCl [sodium hypochlorite],,,"killing activity of bactericide, even against Mycobacterium sp. (Mycobacterium sp.): broad host killing activity; also recorded: efficient"
Ketopimelic Acid,−,sufficient decontamination,
Povidone-iodine,,,efficiency of bactericide combined to detergent ([1]; combined to the detergent Tween 20): significant efficiency; detergent capable of dislodging biofilms ([1]; different types of detergents tried): capable of dislodging biofilms; bactericide tried in cleaning solution [2]: success
R-Chloromandelic Acid,−,sufficient decontamination,
